Reference: patent publication US8293909B2, “Compounds for the treatment of hepatitis C” (Bristol-Myers Squibb Company, priority 2008, dated 2012)

Key:
HCV replicon cells = test: HCV replicon assay (FRET or luciferase readout); assay type: cell-based; details: Hepatitis C virus, Table 1
Source text: FRET Assay Preparation. To perform the HCV FRET screening assay, 96-well cell culture plates were used. The FRET peptide (Anaspec, Inc.) (Taliani et al., Anal. Biochem. 1996, 240, 60-67) contains a fluorescence donor, EDANS, near one end of the peptide and an acceptor, DABCYL, near the other end. The fluorescence of the peptide is quenched by […] resonance energy transfer (RET) between the donor and the acceptor, but as the NS3 protease cleaves the peptide the products are released from RET quenching and the fluorescence of the donor becomes apparent. The assay reagent was made as follows: 5× cell Luciferase cell culture lysis reagent from Promega (#E153A) diluted to 1× with dH2O, NaCl added to 150 mM final, the FRET peptide diluted to 20 μM final from a 2 mM stock.
To prepare plates, HCV replicon cells, with or without a Renilla luciferase reporter gene, were trypsinized and placed into each well of a 96-well plate with titrated test compounds added in columns 3 through 12; columns 1 and 2 contained a control compound (HCV protease inhibitor), and the bottom row contained cells without compound. The plates were then placed in a CO2 incubator at 37° C.
Assays. Subsequent to addition of the test compounds described above (FRET Assay Preparation), at various times the plate was removed and Alamar blue solution (Trek Diagnostics, #00-100) was added per well as a measure of cellular toxicity. After reading in a Cytoflour 4000 instrument (PE Biosystems), plates were rinsed with PBS and then used for FRET assay by the addition of 30 ul of the FRET peptide assay reagent described above (FRET Assay Preparation) per well. The plate was then placed into the Cytoflour 4000 instrument which had been set to 340 excite/490 emission, automatic mode for 20 cycles and the plate read in a kinetic mode. Typically, the signal to noise using an endpoint analysis after the reads was at least three-fold. Alternatively, after Alamar blue reading, plates were rinsed with PBS, 50 ul of DMEM (high glucose) without phenol red was added and plates were then used for luciferase assay using the Promega Dual-Glo Luciferase Assay System.
Compound analysis was determined by quantification of the relative HCV replicon inhibition and the relative cytotoxicity values. To calculate cytoxicity values, the average Alamar Blue fluorescence signals from the control wells were set as 100% non-toxic. The individual signals in each of the compound test wells were then divided by the average control signal and multiplied by 100% to determine […]. To calculate the HCV replicon inhibition values, an average background value was obtained from the two wells containing the highest amount of HCV protease inhibitor at the end of the assay period. These numbers were similar to those obtained from naïve Huh-7 cells.
The background numbers were then subtracted from the average signal obtained from the control wells and this number was used as 100% activity. The individual signals in each of the compound test wells were then divided by the averaged control values after background subtraction and multiplied by 100% to determine percent activity. EC50 values for a protease inhibitor titration were calculated as the concentration which caused a 50% reduction in FRET or luciferase activity. The two numbers generated for the compound plate, percent cytoxicity and percent activity were used to determine compounds of interest for further analysis.

[1] = molecular target: T1, HCV NS5B RdRp genotype 1b (Hepatitis C virus genotype 1b, UniProt Q9WMX2); test: HCV NS5B RdRp enzyme assay (standard / modified); assay type: biochemical; details: Table 1; HCV NS5B genotype 1b
T1 construct: The protein was expressed with an 18 amino acid C-terminal truncation to enhance the solubility; made in house; host or cells: E. coli BL21(DE3), pET21a vector
Protocol: HCV NS5B RdRp cloning, expression, and purification. The cDNA encoding the NS5B protein of HCV, genotype 1b, was cloned into the pET21a expression vector. The protein was expressed with an 18 amino acid C-terminal truncation to enhance the solubility. The E. coli competent cell line BL21(DE3) was used for expression of the protein. Cultures were grown at 37° C. for ˜4 hours until the cultures reached an optical density of 2.0 at 600 nm. The cultures were cooled to 20° C. and induced with 1 mM IPTG. Fresh ampicillin was added to a final concentration of 50 μg/ml and the cells were grown overnight at 20° C.
Cell pellets (3 L) were lysed for purification to yield 15-24 mgs of purified NS5B. The lysis buffer consisted of 20 mM Tris-HCl, pH 7.4, 500 mM NaCl, 0.5% triton X-100, 1 mM DTT, 1 mM EDTA, 20% glycerol, 0.5 mg/ml lysozyme, 10 mM MgCl2, 15 ug/ml deoxyribonuclease I, and Complete™ protease inhibitor tablets (Roche). After addition of the lysis buffer, frozen cell pellets were resuspended using a tissue homogenizer. To reduce the viscosity of the sample, aliquots of the lysate were sonicated on ice using a microtip attached to a Branson sonicator. The sonicated lysate was centrifuged at 100,000×g for 1 hr at 4° C. and filtered through a 0.2 μm filter unit (Corning).
The protein was purified using three sequential chromatography steps: Heparin sepharose CL-6B, polyU sepharose 4B, and Hitrap SP sepharose (Pharmacia). The chromatography buffers were identical to the lysis buffer but contained no lysozyme, deoxyribonuclease I, MgCl2 or protease inhibitor and the NaCl concentration of the buffer was adjusted according to the requirements for charging the protein onto the column. Each column was eluted with a NaCl gradient which varied in length from 5-50 column volumes depending on the column type. After the final chromatography step, the resulting purity of the enzyme is >90% based on SDS-PAGE analysis. The enzyme was aliquoted and stored at −80° C.
Standard HCV NS5B RdRp enzyme assay. HCV RdRp genotype 1b assays were run in a final volume of 60 μl in 96 well plates (Costar 3912). The assay buffer is composed of 20 mM Hepes, pH 7.5, 2.5 mM KCl, 2.5 mM MgCl2, 1 mM DTT, 1.6 U RNAse inhibitor (Promega N2515), 0.1 mg/ml BSA (Promega R3961), and 2% glycerol. All compounds were serially diluted (3-fold) in DMSO and diluted further in water such that the final concentration of DMSO in the assay was 2%. HCV RdRp genotype 1b enzyme was used at a final concentration of 28 nM. A polyA template was used at 6 nM, and a biotinylated oligo-dT12 primer was used at 180 nM final concentration. Template was obtained commercially (Amersham 27-4110). Biotinylated primer was prepared by Sigma Genosys. 3H-UTP was used at 0.6 μCi (0.29 μM total UTP). Reactions were initiated by the addition of enzyme, incubated at 30° C. for 60 min, and stopped by adding 25 μl of 50 mM EDTA containing SPA beads (4 μg/μl, Amersham RPNQ 0007). Plates were read on a Packard Top Count NXT after >1 hr incubation at room temperature.
Modified HCV NS5B RdRp enzyme assay. A modified enzyme assay was performed essentially as described for the standard enzyme assay except for the following: The biotinylated oligo dT12 primer was precaptured on streptavidin-coated SPA beads by mixing primer and beads in assay buffer and incubating at room temperature for one hour. Unbound primer was removed after centrifugation. The primer-bound beads were resuspended in 20 mM Hepes buffer, pH 7.5 and used in the assay at final concentrations of 20 nM primer and 0.67 μg/μl beads. Order of addition in the assay: enzyme (14 nM) was added to diluted compound followed by the addition of a mixture of template (0.2 nM), 3H-UTP (0.6 μCi, 0.29 μM), and primer-bound beads, to initiate the reaction; concentrations given are final. Reactions were allowed to proceed for 4 hours at 30° C.
IC50 values for compounds were determined using seven different [I]. […]

T1 sequence (Q9WMX2 2420-2992): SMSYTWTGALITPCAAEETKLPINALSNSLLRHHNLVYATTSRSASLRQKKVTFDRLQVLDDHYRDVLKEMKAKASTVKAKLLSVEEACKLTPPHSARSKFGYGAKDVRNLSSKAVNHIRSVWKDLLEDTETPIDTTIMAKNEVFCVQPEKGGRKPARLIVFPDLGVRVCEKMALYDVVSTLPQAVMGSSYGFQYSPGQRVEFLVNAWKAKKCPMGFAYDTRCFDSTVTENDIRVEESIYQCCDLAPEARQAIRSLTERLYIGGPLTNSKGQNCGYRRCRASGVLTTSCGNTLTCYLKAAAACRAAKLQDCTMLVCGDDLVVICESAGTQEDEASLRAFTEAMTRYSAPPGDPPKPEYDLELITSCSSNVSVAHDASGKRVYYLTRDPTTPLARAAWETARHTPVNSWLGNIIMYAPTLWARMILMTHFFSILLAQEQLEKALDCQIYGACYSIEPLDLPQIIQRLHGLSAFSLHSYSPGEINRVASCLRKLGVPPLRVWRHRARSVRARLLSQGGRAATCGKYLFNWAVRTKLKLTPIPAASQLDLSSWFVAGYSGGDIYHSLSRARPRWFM

Row | Structure (SMILES) | EC50 (HCV replicon cells) [µM] | IC50 [1] [µM]
1 | CNC(=O)c1c(-c2ccc(F)cc2)nn2ccc(OC)cc12 | > 10 | > 10
2 | CNC(=O)c1c(-c2ccc(F)cc2)nn2ccc(-c3cccc(C(=O)NC(C)(C)C)c3)cc12 | 0.002 to 0.25 | 0.25 to 1
3 | CNC(=O)c1c(-c2ccc(F)cc2)nn2ccc(-c3cccc(C(=O)NC(C)(C)c4ccccc4)c3)cc12 | 0.002 to 0.25 | 0.002 to 0.25
4 | CCc1ccccc1-c1ccc2c(C(=O)NC)c(-c3ccccc3)nn2c1 | > 10 | > 10
5 | CNC(=O)c1c(-c2ccccc2)nn2cc(-c3ccccc3OC)ccc12 | 1 to 10 | 1 to 10
6 | CNC(=O)c1c(-c2ccccc2)nn2cc(-c3ccccc3CO)ccc12 | > 10 | > 10
7 | CNC(=O)c1c(-c2ccccc2)nn2cc(N3CCCCS3(=O)=O)ccc12 | > 10 | > 10
8 | CNC(=O)c1c(-c2ccc(F)cc2)nn2cc(NC(=O)C(C)(C)C)c(C3CC3)cc12 | > 10 | > 10
9 | CNC(=O)c1c(-c2ccc(F)cc2)nn2cccc(NC(=O)OC(C)(C)C)c12 | > 10 | > 10
10 | CNC(=O)c1c(-c2ccc(F)cc2)nn2cc(NC(=O)OC(C)(C)C)ccc12 | > 10 | > 10
11 | CNC(=O)c1c(-c2ccc(F)cc2)nn2ccc(NC(=O)OC(C)(C)C)cc12 | > 10 | > 10
12 | CNC(=O)c1c(-c2ccc(F)cc2)nn2cc(N)ccc12 | > 10 | > 10
13 | CNC(=O)c1c(-c2ccc(F)cc2)nn2ccc(N)cc12 | > 10 | > 10
14 | CNC(=O)c1c(-c2ccc(F)cc2)nn2cccc(N)c12 | > 10 | > 10
15 | COC(=O)c1c(-c2ccccc2)nn2ccc(-c3cccc(C(=O)NC(C)(C)c4ccccc4)c3)cc12 | > 10 | > 10
16 | CC(C)(NC(=O)c1cccc(-c2ccn3nc(-c4ccccc4)c(C(=O)O)c3c2)c1)c1ccccc1 | > 10 | > 10
17 | CNC(=O)c1c(-c2ccc(F)cc2)nn2ccc(NS(=O)(=O)c3ccc(OC(F)(F)F)cc3)cc12 | > 10 | > 10
18 | CNC(=O)c1c(-c2ccc(F)cc2)nn2cc(N(CCO)S(C)(=O)=O)ccc12 | > 10 | > 10
19 | CNC(=O)c1c(-c2ccccc2)nn2ccc(-c3cccc(C(=O)NC(C)(C)c4ccccc4)c3)cc12 | 0.002 to 0.25 | 0.002 to 0.25
20 | CNC(=O)c1c(-c2ccc(F)cc2)nn2cc(N(CCO)S(C)(=O)=O)c(-c3cccc(C(=O)NC(C)(C)c4ccccc4)c3)cc12 | 0.002 to 0.25 | 0.002 to 0.25

Row | Structure (SMILES) | EC50 (HCV replicon cells) [µM] | IC50 [1] [µM]
21 | CNC(=O)c1c(-c2ccc(F)cc2)nn2cc(-c3cccc(OC)c3)ccc12 | > 10 | > 10
22 | CNC(=O)c1c(-c2ccc(F)cc2)nn2cc(-c3ccc(OC)cc3)ccc12 | > 10 | > 10
23 | CCOc1ccccc1-c1ccc2c(C(=O)NC)c(-c3ccc(F)cc3)nn2c1 | > 10 | > 10
24 | CNC(=O)c1c(-c2ccc(F)cc2)nn2cc(NC(=O)C(F)(F)F)ccc12 | > 10 | > 10
25 | CNC(=O)c1c(-c2ccc(F)cc2)nn2ccc(NS(=O)(=O)c3cccc(OC)c3)cc12 | > 10 | > 10
26 | CNC(=O)c1c(-c2ccc(F)cc2)nn2ccc(NCc3ccccc3)cc12 | > 10 | > 10
27 | CNC(=O)c1c(-c2ccc(F)cc2)nn2ccc(NC(=O)c3cccc(OC)c3)cc12 | > 10 | > 10
28 | CNC(=O)c1c(-c2ccc(F)cc2)nn2ccc(NC(=O)c3ccccc3OC)cc12 | > 10 | > 10
29 | CNC(=O)c1c(-c2ccc(F)cc2)nn2ccc(NC(=O)c3ccc(OC)cc3)cc12 | > 10 | > 10
30 | CNC(=O)c1c(-c2ccc(F)cc2)nn2ccc(-n3ccc(C(=O)NC(C)(C)c4ccccc4)c3)cc12 | > 10 | 1 to 10
31 | CNC(=O)c1c(-c2ccc(F)cc2)nc2ccc(-c3cccc(C(=O)O)c3)cn12 | > 10 | > 10
32 | CNC(=O)c1c(-c2ccc(F)cc2)nc2ccc(-c3cccc(C(=O)NC(C)(C)c4ccccc4)c3)cn12 | 0.002 to 0.25 | 0.002 to 0.25
33 | CNC(=O)c1c(-c2ccc(F)cc2)nc2ccc(-c3cccc(C(=O)NC4(c5ccccc5)CC4)c3)cn12 | 0.002 to 0.25 | 0.002 to 0.25
34 | CNC(=O)c1c(-c2ccc(F)cc2)n(C)c2ccc(-c3cccc(C(=O)NC(C)(C)c4ccccc4)c3)cc12 | > 10 | > 10
35 | CNC(=O)c1c(-c2ccc(F)cc2)nn2ccc(-c3cc(C(=O)NC4(c5ncccn5)CC4)c(OC)cc3C)c(F)c12 | 0.002 to 0.25 | 0.002 to 0.25
36 | CNC(=O)c1c(-c2ccc(F)cc2)nn2ccc(-c3cc(C(=O)NC4(c5ncccn5)CC4)ccc3C)c(F)c12 | 0.002 to 0.25 | 0.002 to 0.25
37 | CCN(c1cn2nc(-c3ccc(F)cc3)c(C(=O)NC)c2cc1-c1cccc(C(=O)NC2(c3ccccn3)CC2)c1)S(C)(=O)=O | 0.002 to 0.25 | 0.002 to 0.25
38 | CNC(=O)c1c(-c2ccc(F)cc2)oc2ncc(-c3cc(C(=O)NC4(c5ncccn5)CC4)ccc3C)cc12 | 0.002 to 0.25 | 0.002 to 0.25
39 | CNC(=O)c1c(-c2ccc(F)cc2)nn2ccc(-c3cc(C(=O)NC4(c5cc(C)on5)CC4)c(OC)cc3C)c(F)c12 | 0.002 to 0.25 | 0.002 to 0.25
